From PMC8194506 (Antiviral research, 2020) come the findings set out here.

The conditions of the data set: guinea pig, in vivo.

On to `CCN(CC)CCOc1ccc2c(c1)C(=O)c1cc(OCCN(CC)CC)ccc1-2` [Tilorone], for which the well tolerated dose is no more than 60 mg/kg.
